Source: patent US10946019B2, “Nurr1:RXR activating compounds for simultaneous treatment of symptoms and pathology of Parkinson's disease” (priority 2015, dated 2021)

Legend:
[1] = target: Nurr1:RXRα heterodimer (Homo sapiens (Human), UniProt P19793); test: Nurr1:RXRα-dependent luciferase reporter (DR5-TK-Luc) transactivation assay; type: cell-based; settings: SHSY-5Y, luciferase
Protocol: The in vitro transactivation assay determined the capacity of the compounds of the invention to activate the Nurr1:RXR heterodimers. Naive SHSY-5Y cells were transiently co-transfected, using Lipofectamine 2000 (Invitrogen), with a plasmid expressing the human receptor Nurr1, a plasmid expressing the RXR human receptor (RXRα or RXRγ receptor) and a reporter plasmid DR5-TK-Luc. […] After incubation overnight, the expression of luciferase was measured (FIG. 1A).

[2] = target: Nurr1:RXRγ heterodimer (Homo sapiens (Human), UniProt P48443); test: Nurr1:RXRγ luciferase reporter transactivation assay; type: cell-based; settings: SHSY-5Y
Protocol: Synthesized compounds of the invention and their analogs, shown in Table 1, below, were evaluated for activity in cellular assays. The in vitro transactivation assay determined the capacity of the compounds of the invention to activate the Nurr1:RXR heterodimers. Naive SHSY-5Y cells were transiently co-transfected, using Lipofectamine 2000 (Invitrogen), with a plasmid expressing the human receptor Nurr1, a plasmid expressing the RXR human receptor (RXRα or RXRγ receptor) and a reporter plasmid DR5-TK-Luc. After 24 hours, the culture medium was changed. The test compounds were added (final concentration between 0.5, 2.5 and 12.5 μM) in the culture medium. After incubation overnight, the expression of luciferase was measured (FIG. 1A). Positive control cells were treated with XCT0135908 (1 μM; WO 2005/047268) which induces activation of the Nurr1:RXR heterodimer and results in maximal expression of luciferase. The transcription-activating activities of various compounds of the invention are shown in FIG. 1B, as well as in Table 1, below. […] Furthermore, compound 3 is selective for the Nurr1:RXRα heterodimer over the Nurr1:RXRγ heterodimer (FIG. 1D).

[3] = tested on: c-jun; test: Midbrain c-jun expression by qPCR after administration to mice; type: in vivo, mouse; settings: IP compound 3, qPCR 2 hours after administration
Protocol: FIGS. 69A-69C show the brain penetration, half-life, and c-jun transcriptional activation of compound 3. […] Mice (n=5) were sacrificed 1, 2, 4, 8 and 24 hours after IP administration and brains were dissected 1, 2, 4, 8 and 24 hours post administration. The concentrations of the parent compound in plasma and brain were determined by LC/MSMS.
(§1) To assess the neuroprotective effect of compound 3, this compound was dosed to wt mice intraperitoneally (IP) at 10 mg/kg injections of compound 3 in Ethanol:PG:Saline 10:30:60. After 2 h and 4 h animals (n=3 per time point) were sacrificed, and their brains obtained. After extraction c-jun and tyrosine hydroxylase (TH) levels in brain extract were determined by qPCR (FIG. 1E, 1F).

[4] = tested on: tyrosine hydroxylase (TH); test: Midbrain tyrosine hydroxylase expression by qPCR after administration to mice; type: in vivo, mouse; settings: wt mice, single IP 10 mg/kg, within 4 hours
Protocol: as §1
Given the role of Nurr1:RXRα activation in the transcriptional regulation of DA biosynthesis genes, we tested whether compound 3 could increase DA levels in wt and ASYN transgenic mice (Tofaris et al. J. Neurosci. 26:3942-3950, 2006), which display reduced striatal DA levels after reaching adulthood. […] Aiming to model PD based on human genetic data, we also tested whether compound 3 could increase DA levels in ASYN transgenic mice. A single IP injection of compound 3 (10 mg/kg) was able increase striatal DA (t test p=0.01069) and DA metabolite levels in ASYN transgenics as well (FIG. 75C) in comparison to mice receiving vehicle.

[5] = tested on: C57/BL6 mice; test: Porsolt forced swim test after chronic mild stress; type: in vivo, mouse; settings: CMS mice, 2×10 mg/kg IP spaced 2 hours apart, 4 hours after last injection
Protocol: The chronic mild stress (CMS) procedure was applied semi randomly to each mouse and consisted of a variety of unpredictable mild environmental, social and physical stressors, including confinement in a small tube (1 hours), an empty cage without sawdust (15 hours), water and food deprivation (15 hours), food restriction (approximately 50 mg of food pellets, 3 hours), cage tilted at 45° (1-3 hours), damp sawdust (approximately 200 ml of water per 100 g of sawdust, 3 hours), paired housing in damp sawdust (18 hours), reversal of the light/dark cycle, 2-hour light/dark succession every 30 minutes, as well as light (15-17 hours) and dark (4-6 hours). Compound 3 (2×10 mg/kg spaced 2 hours apart) or vehicle control (Ethanol:PG:Saline, 10:30:60), was administered IP to mice. 4 hours after the last injection, mice were evaluated in the Porsolt forced swim test. […] Recorded behaviors for “floating” (the mouse is completely still in the water, except for isolated movements to right itself) and “swimming” (movement of all four legs with body aligned horizontally in the water) were measured (in seconds) for each mouse.

[6] = tested on: C57BL/6 mice exposed to MPTP; test: Neuroprotection in the acute MPTP mouse model; type: in vivo
[7] = tested on: wild type 129/SV mice treated with MPTP; test: Neuroprotection against MPTP in wild type 129/SV mice; type: in vivo, mouse
Protocol: 20 mg/kg MPTP injections were administered 4 times at the zero day of treatment, spaced 2 hours apart. 7 days after the MPTP injections there was approximately an 80% reduction in striatal projections and 40%-50% dopaminergic neuron death in the SN.

[8] = tested on: AAV-ASYN injected mice; test: Neuroprotection in the AAV-ASYN mouse model; type: in vivo; settings: 10 mg/kg every 12 h for 2 weeks, vs vehicle
Protocol: Because the predictive validity of toxin-based mouse PD models for neuroprotection in humans is questionable, we proceeded to test the effect of compound 3 in a mouse model, where AAV viruses overexpressing wt alpha-synuclein (AAV-ASYN) under the chicken beta-actin promoter were unilaterally injected, combined with contralateral injections of (AAV-GFP). The same compound 3 (10 mg/kg every 12 h for 2 weeks) or vehicle treatment regimen was followed as in the toxin models.

[9] = tested on: human midbrain-specific iPSc-derived DAergic neurons; test: Survival of iPSc-derived DAergic neurons exposed to MPP+; type: cell-based; settings: within 24 hours, compared to vehicle
Protocol: To ascertain the translational therapeutic potential of compound 3, we tested whether human midbrain-specific iPSc-derived DAergic neurons, as indicated by positive staining and qPCR for the neuronal markers MAP2, TH, FoxA2, Lmx1 and En1, can be protected from MPP+ toxicity. Compound 3 was able to double the number of surviving neurons after MPP+ exposure within 24 hours, compared to vehicle (FIGS. 72J-72L). The surviving control neurons had fewer and retreating projections, indicating compromised function (FIG. 72K) while the neurons that had received compound 3 had retained a complex network of projections and contacts (FIG. 72L). In addition, we tested compound 3 in iPSc-derived DAergic neurons from a PD patient carrying the LRRK2-G2019S mutation.

Sequence of Nurr1:RXRα heterodimer (P19793 whole entry): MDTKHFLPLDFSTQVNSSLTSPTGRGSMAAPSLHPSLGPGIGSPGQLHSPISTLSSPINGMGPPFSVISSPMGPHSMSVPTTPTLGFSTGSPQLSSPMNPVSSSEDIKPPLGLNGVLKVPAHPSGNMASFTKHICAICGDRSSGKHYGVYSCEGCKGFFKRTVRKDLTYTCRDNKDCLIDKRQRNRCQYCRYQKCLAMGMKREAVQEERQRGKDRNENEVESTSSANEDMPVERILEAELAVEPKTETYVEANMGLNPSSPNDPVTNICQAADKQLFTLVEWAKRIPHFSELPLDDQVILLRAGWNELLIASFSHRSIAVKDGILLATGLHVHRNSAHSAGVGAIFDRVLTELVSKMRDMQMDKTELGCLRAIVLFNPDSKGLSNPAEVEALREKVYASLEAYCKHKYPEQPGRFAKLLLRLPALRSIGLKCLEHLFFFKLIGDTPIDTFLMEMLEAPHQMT
Sequence of Nurr1:RXRα heterodimer (P43354 whole entry partner): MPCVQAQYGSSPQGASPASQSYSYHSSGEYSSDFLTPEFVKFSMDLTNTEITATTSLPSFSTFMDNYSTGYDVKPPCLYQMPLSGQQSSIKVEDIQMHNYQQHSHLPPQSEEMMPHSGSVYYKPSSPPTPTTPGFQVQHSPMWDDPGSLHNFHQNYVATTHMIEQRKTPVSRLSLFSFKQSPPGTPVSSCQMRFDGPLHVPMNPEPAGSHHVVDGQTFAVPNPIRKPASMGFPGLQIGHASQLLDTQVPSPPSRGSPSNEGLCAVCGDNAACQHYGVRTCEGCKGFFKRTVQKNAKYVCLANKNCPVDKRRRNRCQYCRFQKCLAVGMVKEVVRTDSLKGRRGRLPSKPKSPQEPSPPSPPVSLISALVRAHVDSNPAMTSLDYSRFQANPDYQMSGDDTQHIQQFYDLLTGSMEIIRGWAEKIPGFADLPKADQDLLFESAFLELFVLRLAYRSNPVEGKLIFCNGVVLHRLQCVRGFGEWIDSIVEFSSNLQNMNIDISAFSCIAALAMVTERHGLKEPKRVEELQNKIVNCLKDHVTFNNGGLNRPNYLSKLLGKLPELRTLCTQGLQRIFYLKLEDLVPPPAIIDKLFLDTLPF
Sequence of Nurr1:RXRγ heterodimer (P48443 whole entry, looked up): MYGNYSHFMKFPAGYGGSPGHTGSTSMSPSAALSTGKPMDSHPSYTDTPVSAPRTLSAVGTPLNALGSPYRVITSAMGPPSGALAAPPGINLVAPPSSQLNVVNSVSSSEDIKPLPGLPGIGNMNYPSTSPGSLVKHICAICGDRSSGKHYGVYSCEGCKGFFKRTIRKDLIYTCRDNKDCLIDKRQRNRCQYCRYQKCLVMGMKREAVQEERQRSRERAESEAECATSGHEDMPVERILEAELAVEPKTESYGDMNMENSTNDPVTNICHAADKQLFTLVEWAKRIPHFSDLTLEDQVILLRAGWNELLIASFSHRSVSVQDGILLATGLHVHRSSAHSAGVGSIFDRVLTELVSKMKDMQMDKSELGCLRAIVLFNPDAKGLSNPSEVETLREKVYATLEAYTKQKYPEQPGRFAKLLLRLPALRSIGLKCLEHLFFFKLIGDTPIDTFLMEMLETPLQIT
Sequence of Nurr1:RXRγ heterodimer (P43354 whole entry partner, looked up): as the sequence (P43354 whole entry partner) above

C=CCc1c(N(C)c2ccc(C(=O)O)cc2)nc(-c2ccccc2)nc1C(F)(F)F [Example 3, 4-((5-allyl-2-phenyl-6-(trifluoromethyl)pyrimidin-4-yl)(methyl)amino)benzoic acid]
activation of Nurr1:RXRα heterodimers [1]: activated
activation of Nurr1:RXRγ heterodimers [2]: did not activate
midbrain c-jun expression [3]: increased
TH gene expression in the midbrain [4]: increased
decrease of floating time [5]: 61.48%
increase of swimming time [5]: 31.7%
remaining SN axonal terminals in the striatum ([6]; 10 mg/kg IP every 12 hours): doubling
increase of TH(+) midbrain neuron survival ([6]; 10 mg/kg IP every 12 hours for 6 days, stereology): 31%
improvement of motor coordination (accelerating rotarod) ([6]; 10 mg/kg IP every 12 hours for 6 days, vs vehicle): > 100%
neuroprotection with once-a-day injection regimen ([6]; 20 mg/kg once a day): ineffective
increase in number of surviving neuronal bodies (SNpc) ([6]; C57/BL6, IP 10 mg/kg every 12 hours for 8 days): 33.5%
neuroprotection against MPTP toxicity ([7]; 129sv wt mice): equally effective
increase in number of surviving neuronal bodies ([7]; wild type 129/SV, MPTP, IP 10 mg/kg every 12 hours for 8 days): 33.5%
number of NeuN(+) midbrain neurons [8]: increased
increase of TH(+) midbrain neurons ([8]; listed as Compound 3): 48%
increase of TH(+) midbrain neurons ([8]; listed as compound 3): about 47%
number of surviving neurons after MPP+ exposure [9]: double
